SMILES strings stand for the structures.

This assay concerns the target T1, rat CB-1 receptor (Rattus norvegicus, UniProt P20272).
T1 construct: The tissue obtained from the brain of SD rats was homogenized; from tissue; host or cells: brain of SD rats (membrane pellet of homogenate)
Nature of the assay: rat CB-1 receptor binding protocol with [3H]CP-55940. Particulars: [3H]CP-55940, brain tissue of SD rats, 30 °C for 60 min; read-out: IC50.

T1 sequence (P20272 whole entry): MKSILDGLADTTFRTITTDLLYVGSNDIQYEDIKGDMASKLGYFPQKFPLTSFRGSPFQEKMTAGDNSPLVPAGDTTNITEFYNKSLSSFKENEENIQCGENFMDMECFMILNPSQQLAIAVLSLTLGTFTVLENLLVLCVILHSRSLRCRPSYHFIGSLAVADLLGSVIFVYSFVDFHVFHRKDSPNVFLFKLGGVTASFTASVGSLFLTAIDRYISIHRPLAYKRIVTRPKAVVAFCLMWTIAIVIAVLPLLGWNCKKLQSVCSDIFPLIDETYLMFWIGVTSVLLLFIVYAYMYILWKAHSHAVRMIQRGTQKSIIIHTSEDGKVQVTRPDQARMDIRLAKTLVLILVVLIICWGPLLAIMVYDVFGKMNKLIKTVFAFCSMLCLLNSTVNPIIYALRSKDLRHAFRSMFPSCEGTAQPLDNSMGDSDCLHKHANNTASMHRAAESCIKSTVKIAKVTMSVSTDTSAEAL

By IC50 is commonly meant the midpoint of a concentration-inhibition curve. For the compound `Cc1c(-c2nnc(C(C)(C)C)s2)nc(-c2ccc(Cl)cc2Cl)n1-c1ccc(Cl)cc1` [Example 90, 2-tert-Butyl-5-(1-(4-chlorophenyl)-2-(2,4-dichlorophenyl)-5-methyl-1H-imidazol-4-yl)-1,3,4-thiadiazole], the IC50 stood at 20.2 nM.

Regarding `CCc1c(-c2nnc(C3(c4ccc(Cl)cc4)CCCC3)s2)nc(-c2ccc(Cl)cc2Cl)n1-c1ccc(Br)cc1` [Example 135, 2-(1-(4-Bromophenyl)-2-(2,4-dichlorophenyl)-5-ethyl-1H-imidazol-4-yl)-5-(1-(4-chlorophenyl)cyclopentyl)-1,3,4-thiadiazole], the IC50 was 1.87 nM.
